Laboratory results as given in ChEMBL document CHEMBL1133206, “Antifungal rapamycin analogues with reduced immunosuppressive activity” (Bioorg Med Chem Lett, 2000).
pIC50: −log10 of the molar value. Values after ≈ are worked out from the molar mass of the structure shown.

Assays:
[1] = system: Aspergillus niger; assay: Compound was screened in vitro for antifungal activity at a minimum inhibitory concentration (~100 ug/mL) against Aspergillus nigerl; Not effected; format: functional
[2] = system: Candida albicans; assay: In vitro antifungal activity against Candida albicans (CA 10231); format: functional
[3] = system: Pichia kudriavzevii; assay: In vitro antifungal activity against Candida krusei (CK 28838); format: functional
[4] = system: Candida albicans; assay: In vitro antifungal activity against Candida albicans (CA 38247); Weak; format: functional, organism-based
[5] = system: Candida albicans; assay: In vitro antifungal activity against Candida albicans (CA 442); Weak; format: functional, organism-based
[6] = system: Candida albicans; assay: In vitro for antifungal activity against Candida albicans (CA 579a); format: functional
[7] = system: Candida albicans; assay: In vitro antifungal activity against Candida albicans (CA 62376); Weak; format: functional, organism-based
[8] = system: Candida albicans; assay: In vitro antifungal activity against […] (CA 34140); Not affected.; format: functional
[9] = system: Candida tropicalis; assay: In vitro antifungal activity against Candida tropicalis (CT 750); format: functional
[10] = species on record: Homo sapiens; assay: Inhibitory activity against human concanavalin-A proliferation assay; format: functional
[11] = system: Nakaseomyces glabratus; assay: In vitro antifungal activity against Torulopsis glabrata (TG 15545); format: functional
[12] = system: Aspergillus niger; assay: Compound was screened in vitro for antifungal activity at a minimum inhibitory concentration (~100 ug/mL) against Aspergillus niger; not affected; format: functional
[13] = system: Candida albicans; assay: Compound was screened in vitro for antifungal activity against Candida albicans (CA 38247); weak; format: functional, organism-based
[14] = system: Candida albicans; assay: Compound was screened in vitro for antifungal activity against Candida albicans (CA 442); weak; format: functional, organism-based
[15] = system: Candida albicans; assay: Compound was screened in vitro for antifungal activity against Candida albicans (CA 62376); weak; format: functional, organism-based
[16] = system: Candida albicans; assay: Compound was screened in vitro for antifungal activity at a minimum inhibitory concentration (~100 ug/mL) against […] (CA 34140); not affected; format: functional
[17] = system: Candida albicans; assay: Compound was screened in vitro for antifungal activity against Candida albicans (CA 442); format: functional
[18] = system: Candida albicans; assay: Compound was screened in vitro for antifungal activity against Candida albicans (CA 62376); format: functional
[19] = system: Candida albicans; assay: Compound was screened in vitro for antifungal and immunosuppressive activity against Candida albicans (CA 38247); format: functional
[20] = system: Aspergillus niger; assay: In vitro antifungal activity at a minimum inhibitory concentration (~100 ug/mL) against Aspergillus niger; Not affected; format: functional; details: Aspergillus niger; read-out: MIC
[21] = system: Candida albicans; assay: Compound was screened in vitro for antifungal activity against Candida albicans (CA 38247); format: functional
[22] = system: Candida albicans; assay: Compound was screened in vitro for antifungal activity at a minimum inhibitory concentration (~100 ug/mL) against […] ([…]); Not affected; format: functional
[23] = system: Candida tropicalis; assay: Compound was screened in vitro for antifungal activity against Candida tropicalis (CT 750)
[24] = biological target: Peptidyl-prolyl cis-trans isomerase FKBP1A (Homo sapiens, UniProt P62942); assay: The compound was tested for binding affinity to FK506 binding protein 12 using Rapamycin as control, with an ascomycin conjugate of alkaline phosphatase in a competition binding assay
Peptidyl-prolyl cis-trans isomerase FKBP1A, sequence (P62942 whole entry): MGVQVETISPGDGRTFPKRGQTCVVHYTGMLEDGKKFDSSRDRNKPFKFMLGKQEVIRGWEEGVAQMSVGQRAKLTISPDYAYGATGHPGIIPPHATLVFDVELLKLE

MIC [2] [µg/mL]	MIC [3] [µg/mL]	MIC [4]	MIC [5]	MIC [6] [µg/mL]	MIC [7]	MIC [9] [µg/mL]	MIC [11] [µg/mL]	MIC [17] [µg/mL]	SMILES	pIC50 [10]	other results
> 100	> 100			> 100		> 100		> 100	CO[C@H]1C[C@@H]2CC[C@@H](C)[C@@](O)(O2)C(=O)C(=O)N2CCCC[C@H]2C(=O)O[C@H]([C@H](C)C[C@@H]2CC[C@@H](OC(=O)c3ccc([N+](=O)[O-])cc3)[C@H](OC)C2)CC(=O)[C@H](C)/C=C(\C)[C@@H](O)[C@@H](OC)C(=O)[C@H](C)C[C@H](C)CCCC/C=C/1C		MIC [18]: > 100 µg/mL; MIC [19]: > 100 µg/mL
0.2 (≈ 0.219 µM)	0.78 (≈ 0.853 µM)	Weak	Weak	0.2 (≈ 0.219 µM)	Weak		< 0.1	0.2 (≈ 0.219 µM)	CO[C@H]1C[C@@H]2CC[C@@H](C)[C@@](O)(O2)C(=O)C(=O)N2CCCC[C@H]2C(=O)O[C@H]([C@H](C)C[C@@H]2CC[C@@H](O)[C@H](OC)C2)CC(=O)[C@H](C)/C=C(\C)[C@@H](O)[C@@H](OC)C(=O)[C@H](C)C[C@H](C)/C=C/C=C/C=C/1C [SIROLIMUS]	9.00	MIC [20]: ~100 µg/mL (≈ 109 µM); MIC [21]: 0.2 µg/mL (≈ 0.219 µM); MIC [18]: 0.2 µg/mL (≈ 0.219 µM); MIC [22]: ~100 µg/mL (≈ 109 µM); MIC [23]: 0.2 µg/mL (≈ 0.219 µM)
> 100	> 100			> 100		> 100		> 100	CO[C@H]1C[C@@H]2CC[C@@H](C)[C@@](O)(O2)C(=O)C(=O)N2CCCC[C@H]2C(=O)O[C@H]([C@H](C)C[C@@H]2CC[C@@H](OC(=O)N3CCOCC3)[C@H](OC)C2)CC(=O)[C@H](C)/C=C(\C)[C@@H](O)[C@@H](OC)C(=O)[C@H](C)C[C@H](C)CCCC/C=C/1C		MIC [21]: > 100 µg/mL; pIC50 [24]: < 6.00

The remaining lines, values behind:

SMILES	MIC [2] [µg/mL]	MIC [3] [µg/mL]	MIC [4]	MIC [5]	MIC [6] [µg/mL]	MIC [7]	MIC [9] [µg/mL]	MIC [11] [µg/mL]	MIC [17] [µg/mL]	pIC50 [10]	other results
CO[C@@H]1C[C@H](C[C@@H](C)[C@@H]2CC(=O)[C@H](C)/C=C(\C)[C@@H](O)[C@@H](OC)C(=O)[C@H](C)C[C@H](C)/C=C/C=C/C=C(\C)[C@H](N(O)C(=O)N3CCOCC3)C[C@@H]3CC[C@@H](C)[C@@](O)(O3)C(=O)C(=O)N3CCCC[C@H]3C(=O)O2)CC[C@H]1O	25 (≈ 24.3 µM)	6.25 (≈ 6.08 µM)	Weak	Weak	50 (≈ 48.6 µM)	Weak	25 (≈ 24.3 µM)	6.25 (≈ 6.08 µM)		5.76	MIC [1]: ~100 µg/mL (≈ 97.2 µM); MIC [8]: ~100 µg/mL (≈ 97.2 µM)
COC(=O)N[C@@H]1C[C@@H]2CC[C@@H](C)[C@@](O)(O2)C(=O)C(=O)N2CCCC[C@H]2C(=O)O[C@H]([C@H](C)C[C@@H]2CC[C@@H](O)[C@H](OC)C2)CC(=O)[C@H](C)/C=C(\C)[C@@H](O)[C@@H](OC)C(=O)[C@H](C)C[C@H](C)/C=C/C=C/C=C/1C	1.56 (≈ 1.63 µM)	0.78 (≈ 0.815 µM)			1.56 (≈ 1.63 µM)		1.56 (≈ 1.63 µM)	0.78 (≈ 0.815 µM)		5.86	MIC [12]: ~100 µg/mL (≈ 104 µM); MIC [13]: Weak; MIC [14]: Weak; MIC [15]: Weak; MIC [16]: ~100 µg/mL (≈ 104 µM)
CO[C@@H]1C[C@H](C[C@@H](C)[C@@H]2CC(=O)[C@H](C)/C=C(\C)[C@@H](O)[C@@H](OC)C(=O)[C@H](C)C[C@H](C)/C=C/C=C/C=C(\C)[C@H](N(O)C(C)=O)C[C@@H]3CC[C@@H](C)[C@@](O)(O3)C(=O)C(=O)N3CCCC[C@H]3C(=O)O2)CC[C@H]1O	6.25 (≈ 6.53 µM)	3.12 (≈ 3.26 µM)			6.25 (≈ 6.53 µM)		6.25 (≈ 6.53 µM)	1.56 (≈ 1.63 µM)		7.02	MIC [12]: ~100 µg/mL (≈ 104 µM); MIC [13]: Weak; MIC [14]: Weak; MIC [15]: Weak; MIC [16]: ~100 µg/mL (≈ 104 µM)
CO[C@@H]1C[C@H](C[C@@H](C)[C@@H]2CC(=O)[C@H](C)/C=C(\C)[C@@H](O)[C@@H](OC)C(=O)[C@H](C)C[C@H](C)/C=C/C=C/C=C(\C)[C@H](O)C[C@@H]3CC[C@@H](C)[C@@](O)(O3)C(=O)C(=O)N3CCCC[C@H]3C(=O)O2)CC[C@H]1O	1.56 (≈ 1.73 µM)	0.78 (≈ 0.867 µM)	Weak	Weak	3.12 (≈ 3.47 µM)	Weak	1.56 (≈ 1.73 µM)	0.78 (≈ 0.867 µM)		8.20	MIC [20]: ~100 µg/mL (≈ 111 µM); MIC [8]: ~100 µg/mL (≈ 111 µM); pIC50 [24]: 7.85
